Experimental data as given in patent US20230264009A1, “DISINFECTING CAP KIT FOR LUER ACCESS DEVICES” (SterileCare Inc., priority 2022, published 2023).

Tests used:
E. coli SK2 = test: MBC/MFC determination; type: cell-based, Escherichia coli; conditions: alone
Description: (§1) An assay was made using a minimum inhibitory concentration (MIC) and minimum bactericidal concentration (MBC) and minimum fungicidal concentration (MFC) determination. The MIC was determined by the micro broth dilution method in 96-well plates. Serial two-fold dilutions of tetrasodium EDTA (from 2% to 0.015%), ethanol (from 50% to 0.1%) and chlorhexidine HCl (from 100 µg/mL to 0.025 µg/mL) were prepared in MH broth with a final volume of 90 µL per well. A 10 µL containing 1 × 10^5 bacterial cells or 2 × 10^3 fungal cells were added to each well. The inoculated plates were covered with a lid, sealed with Parafilm, and incubated for 24 h at 37° C. with slight rocking on a tilting platform shaker. After incubation, the optical density at 600 nm (OD 600 ) of the cultures in each well was measured using an xMark™ Microplate Absorbance Spectrophotometer (Bio-Rad). […] MBCs and MFCs were determined by transferring 100 µL from each well with no apparent growth onto appropriate agar plates, followed by incubation for 24 h at 37° C.

C. albicans ON47 biofilm [1] = test: FBEC index, checkerboard dilution on biofilms; type: cell-based, Candida albicans
Description: (§3) In step (4), microtiter plates are incubated at 37° C. for 24 h. then (6), after incubation, the bacterial and fungal cells were dislodged from the pegs into the recovery medium described above.
(§4) Three 10-µL aliquots, for a total of 30 µL from each well of recovery medium, were spotted on MH agar plates and incubated for 24 h at 37° C. […] The FBEC determination is a modification of the FICI.

[2] = tested on: Staphylococcus epidermidis ON170; test: MBC/MFC determination; type: cell-based; conditions: alone; S. epidermidis ON170
Description: as §1

Escherichia coli ON29 [3] = test: MBC/MFC determination; type: cell-based; conditions: alone; E. coli ON29
Description: as §1

[4] = tested on: Pseudomonas aeruginosa SK1; test: MBC/MFC determination; type: cell-based; conditions: alone; P. aeruginosa SK1
Description: as §1

Proteus mirabilis ON153 [5] = test: MBC/MFC determination; type: cell-based; conditions: alone; P. mirabilis ON153
Description: as §1

Serratia marcescens SK2 [6] = test: MBC/MFC determination; type: cell-based; conditions: alone; S. marcescens SK2
Description: as §1

C. albicans ON47 = test: MBC/MFC determination; type: cell-based, Candida albicans; conditions: alone
Description: as §1

S. epidermidis SK9 = test: Checkerboard titration, FMCI; type: cell-based, Staphylococcus epidermidis
Description: as §1
(§2) A fourth composition and solution included tetrasodium EDTA with ethanol or chlorhexidine HCl. This fourth composition and solution were created using checkerboard titration methods using micro broth dilution in 96-well microtiter plates. The concentrations of antimicrobials used were based on previously determined MIC values. Briefly, 200 µL of two-fold dilutions of tetrasodium EDTA and ethanol or chlorhexidine HCl were prepared in MH or MH II broth with standardized cell suspension. […] Microtiter plates were incubated at 37° C. for 24 h, and the results were analyzed. Each test was performed in duplicate and included a growth control without adding any antimicrobials.

C. albicans ON47 biofilm [7] = test: MBEC Assay, 48-h biofilm, 24 h exposure; type: cell-based, Candida albicans
Description: A biofilm cultivation cell composition was provided. This fifth composition was created using an MBEC Assay® biofilm inoculator, consisting of a polystyrene lid with 96 downward-protruding pegs and a corresponding base used to grow biofilms. A standardized inoculum was diluted in an appropriate biofilm growth medium to achieve a viable cell count of 1.5 × 10^6 CFU/mL of bacterial cells or […] CFU/mL of fungal cells. Then, 150 µL of this inoculum was transferred into each appropriate well, and the peg lids were inserted into the microtiter plates. The plates were sealed with Parafilm and were incubated at optimum temperature for 48 h with slight rocking for bacteria and shaking at 200 rpm for fungal strains. After incubation, the peg lid was removed from the base and rinsed twice with sterile phosphate-buffered saline (PBS) for 2 min to remove loosely attached non-sessile cells. Before the antimicrobial challenge, the pegs in column 1 (n = 8) were considered the biofilm growth control; these pegs were removed from the lids, placed into 200 µL of recovery medium, and analyzed for starting biofilm cell numbers as described below. […] MBEC values were determined as the minimum concentration of antimicrobials that yielded a viable cell count at or lower than the 125 CFU/mL detection limit.

[8] = tested on: Staphylococcus epidermidis ON170; test: Checkerboard titration, FICI; type: cell-based; conditions: S. epidermidis ON170
Description: as §2

[9] = tested on: Staphylococcus aureus ON89; test: Checkerboard titration, FICI; type: cell-based; conditions: S. aureus ON89
Description: as §2

Escherichia coli ON29 [10] = test: Checkerboard titration, FICI; type: cell-based; conditions: E. coli ON29
Description: as §2

Candida albicans SK4b = test: Checkerboard titration, FICI; type: cell-based; conditions: C. albicans SK4b
Description: as §2

[11] = tested on: Stenotrophomonas maltophilia ON17; test: Checkerboard titration, FICI; type: cell-based; conditions: S. maltophilia ON17
Description: as §2

[12] = tested on: Pseudomonas aeruginosa SK1; test: Checkerboard titration, FICI; type: cell-based; conditions: P. aeruginosa SK1
Description: as §2

Proteus mirabilis ON153 [13] = test: Checkerboard titration, FICI; type: cell-based; conditions: P. mirabilis ON153
Description: as §2

Serratia marcescens SK2 [14] = test: Checkerboard titration, FICI; type: cell-based; conditions: S. marcescens SK2
Description: as §2

[15] = tested on: Candida albicans SK4b biofilm; test: FBEC index, checkerboard dilution on biofilms; type: cell-based; conditions: C. albicans SK4b biofilm
Description: as §3, §4

[16] = tetrasodium EDTA + chlorhexidine HCl

**Q.** Which MBC/MFC (E. coli SK2) does the source give for `O=C([O-])CN(CCN(CC(=O)[O-])CC(=O)[O-])CC(=O)[O-].[Na+].[Na+].[Na+].[Na+]` [EDTA, tetrasodium EDTA] here?
**A.** 0.5 % w/v

**Q.** And the “FBEC (concentration in combination)” value (C. albicans ON47 biofilm [1]; [16])?
**A.** 0.031 % w/v

**Q.** And the “FBEC (concentration in combination)” value (C. albicans ON47 biofilm [1]; tetrasodium EDTA + ethanol)?
**A.** 0.125 % w/v

**Q.** And the MBC/MFC [2]?
**A.** 0.5 % w/v

**Q.** What about the MBC/MFC (Escherichia coli ON29 [3]) of the same molecule?
**A.** 1 % w/v

**Q.** What about the MBC/MFC [4] of the same molecule?
**A.** 1 % w/v

**Q.** What about the MBC/MFC (Proteus mirabilis ON153 [5]) of the same molecule?
**A.** 2 % w/v

**Q.** What about the MBC/MFC (Serratia marcescens SK2 [6]) of the same molecule?
**A.** 2 % w/v

**Q.** What about the MBC/MFC (C. albicans ON47) of the same molecule?
**A.** 1 % w/v

**Q.** And the “Concentration in combination giving FMCI” value (S. epidermidis SK9; [16])?
**A.** 0.008 % w/v

**Q.** What about the “Concentration in combination giving FMCI” value (S. epidermidis SK9; tetrasodium EDTA + ethanol) of the same molecule?
**A.** 0.031 % w/v

**Q.** What about the MBEC (C. albicans ON47 biofilm [7]) of the same molecule?
**A.** 1 % w/v

**Q.** And the “Concentration in combination giving FICI” value [8, 16]?
**A.** 0.063 % w/v

**Q.** And the “Concentration in combination giving FICI” value ([8]; tetrasodium EDTA + ethanol)?
**A.** 0.015 % w/v

**Q.** What about the “Concentration in combination giving FICI” value [9, 16] of the same molecule?
**A.** 0.008 % w/v

**Q.** What about the “Concentration in combination giving FICI” value ([9]; tetrasodium EDTA + ethanol) of the same molecule?
**A.** 0.015 % w/v

**Q.** And the “Concentration in combination giving FICI” value (Escherichia coli ON29 [10]; [16])?
**A.** 0.008 % w/v

**Q.** What about the “Concentration in combination giving FICI” value (Escherichia coli ON29 [10]; tetrasodium EDTA + ethanol) of the same molecule?
**A.** 0.25 % w/v

**Q.** And the “Concentration in combination giving FICI” value (Candida albicans SK4b; [16])?
**A.** 0.063 % w/v

**Q.** And the “Concentration in combination giving FICI” value (Candida albicans SK4b; tetrasodium EDTA + ethanol)?
**A.** 0.25 % w/v

**Q.** What about the “Concentration in combination giving FICI” value [11, 16] of the same molecule?
**A.** 0.015 % w/v

**Q.** And the “Concentration in combination giving FICI” value ([11]; tetrasodium EDTA + ethanol)?
**A.** 0.031 % w/v

**Q.** What about the “Concentration in combination giving FICI” value [12, 16] of the same molecule?
**A.** 0.5 % w/v

**Q.** What about the “Concentration in combination giving FICI” value ([12]; tetrasodium EDTA + ethanol) of the same molecule?
**A.** 0.031 % w/v

**Q.** What about the “Concentration in combination giving FICI” value (Proteus mirabilis ON153 [13]; [16]) of the same molecule?
**A.** 0.063 % w/v

**Q.** What about the “Concentration in combination giving FICI” value (Proteus mirabilis ON153 [13]; tetrasodium EDTA + ethanol) of the same molecule?
**A.** 0.5 % w/v

**Q.** And the “Concentration in combination giving FICI” value (Serratia marcescens SK2 [14]; [16])?
**A.** 0.063 % w/v

**Q.** What about the “Concentration in combination giving FICI” value (Serratia marcescens SK2 [14]; tetrasodium EDTA + ethanol) of the same molecule?
**A.** 0.5 % w/v

**Q.** What about the “FBEC (concentration in combination)” value [15, 16] of the same molecule?
**A.** 0.063 % w/v

**Q.** And the “FBEC (concentration in combination)” value ([15]; tetrasodium EDTA + ethanol)?
**A.** 0.125 % w/v
